Results published in patent US20070088021A1, “4-haloisoquinoline derivative and drug containing the same” (priority 2005, published 2007).
Counter-ions that a name gives are not always drawn.

How the values were obtained:
Rho kinase [1] = conditions: order of magnitude stated in background; cited from earlier work
Rho kinase [2] = molecular target: T1, Rho kinase; assay: Rho-kinase assay (measurement of kinase inhibitory activity); type: biochemical; conditions: method of Patent Document 1
T1 construct: IC50 for Rho kinase
Description: A Rho-kinase assay was performed according to the method described in Patent Document 1, and the 50% inhibitory concentration (hereinafter referred to as the “IC50 value”) for Rho kinase was calculated.

Structure (SMILES)	50% inhibitory concentration (IC50) for Rho kinase (Rho kinase [1])	IC50 (Rho kinase [2])
Cc1cncc2cccc(S(=O)(=O)N3CCCNC[C@@H]3C)c12.Cl [(S)-(+)-hexahydro-2-methyl-1-(4-methyl-5-isoquinolinesulfonyl)-1H-1,4-diazepine hydrochloride]	1/100	–
C[C@H]1CNCCCN1S(=O)(=O)c1cccc2cncc(Br)c12 [Dihydrochloride of Compound (1) X = Br, 2-(S)-1-(4-bromoisoquinoline-5-sulfonyl)-2-methylhomopiperazine]	–	5.8 nM
CC1CNCCCN1S(=O)(=O)c1cccc2cncc(Cl)c12 (centres unmarked) [Dihydrochloride of Compound (1) X = Cl]	–	25.8 nM
C[C@H]1CNCCCN1S(=O)(=O)c1cccc2cncc(F)c12 [Dihydrochloride of Compound (1) X = F]	–	85 nM
Cc1cncc2cccc(S(=O)(=O)N3CCCNC[C@@H]3C)c12 [Reference Compound B, (S)-(+)-hexahydro-2-methyl-1-(4-methyl-5-isoquinolinesulfonyl)-1H-1,4-diazepine hydrochloride, reference compound]	–	12 nM
